Usually MIC stands for the least concentration at which growth counts as inhibited. A lower MIC goes with inhibition by little substance.

The structures appear in SMILES notation. A value given as a limit tells only on which side of the number the result lay.

The test system of data set [1] is P. Aeruginosa A5007. In words: Acute mouse protection test. It is filed as in vivo. The settings on record: mice infected intraperitoneally with P. Aeruginosa A5007, dosed at 1 and 5 hours post-infection.
The test system of data set [2] is Ps. Aeruginosa A5007. Briefly: Second in vitro test, MIC in Brain Heart Infusion Broth (BHIB).
Procedure: (§1) The in vitro antibacterial activity of the test compounds was determined by conventional agar dilution procedures. The organisms were grown overnight in brain-heart infusion (BHI) broth (Difco 0037-01-6) at 36° C. Twofold dilutions of the stock solution (2000 mcg/mL) of the test compound were made in BHI agar to obtain a test concentration ranging from 200 to 0.005 mcg/mL. The plate was inoculated with approximately 10^4 organisms. It was then incubated at 36° C. for 18 h.
For data set [3], the system named is E. Coli Juhl. Described as above.
Procedure: as §1
The nature of data set [4]: Conversion of prodrug to parent drug in whole blood at 37° C. The data set is classed as in vitro ADME. The settings on record: conversion to parent drug in dog whole blood at 37° C.; seconds; two values = two prodrug peaks. The procedure:
An aqueous solution of prodruq (Z) is spiked into fresh whole blood containing sodium heparin as an anticoagulant. The sample is mixed gently by inversion and placed in a 37° waterbath. At selected time intervals an 0.5 ml aliquot of blood is removed and placed in a chilled 1.5 ml centrifuge tube (ice temperature). Samples are centrifuges at 13,000 rpm for two minutes to separate plasma. An 0.2 ml aliquot of the plasma sample is combined with 0.2 ml internal standard (7-(4-amino-2-methyl-1-pyrrolidinyl)-1-(2,4-difluorophenyl)-6-fluoro-1,4-d ihydro-4-oxo-1,8-naphthyridine-3-carboxylic acid in 0.2 M sodium phosphate pH 7.2 buffer) and 6 mls CH2 Cl2 :EtoH (9:1 by volume). Samples are capped and shaken gently for 10 minutes. Samples are centrifuqes at 2500 rpm for 10 minutes (4° C.). The aqueous layer is aspirated to waste and the organic layer is transferred to a conical centrifuge tube and evaporated to dryness with a stream of dry air and low heat […]. Samples are reconstituted with 0.2 ml mobile phase followed by vortexing. Samples are centrifuqes at 2500 rpm for 10 minutes to separate precipitate. The supernatant is transferred to a WISP vial with plastic insert for HPLC analysis.

In data set [5] the test system is Stap. Aureus CMX 553. In words: Second in vitro test, MIC in Brain Heart Infusion Broth (BHIB).
Procedure: as §1
Data set [6] relates to Stap. Aureus NCTC 10649. Briefly: Acute mouse protection test. It is filed as in vivo. The following applies: mice infected intraperitoneally with Stap. Aureus NCTC 10649, dosed at 1 and 5 hours post-infection.
Data set [7] in a line: Plasma level in dog after oral dose. It is filed as in vivo. The following applies: 10 mg equivalent/kg oral dose, HPLC.
Source text: The plasma samples were collected and determined by the HPLC analysis.
Data set [8] in a line: Aqueous solubility (water and pH 7.4). The following applies: the sign > refers to an approximate value, solubility may be within 10% higher.
Data set [9] deals with Strep pyogenes EES 61. Briefly: Second in vitro test, MIC in Brain Heart Infusion Broth (BHIB).
Procedure: as §1
Data set [10] has as its system E. Coli Juhl. In words: Acute mouse protection test. The data set is classed as in vivo. The settings on record: mice infected intraperitoneally with E. Coli JUHL, dosed at 1 and 5 hours post-infection.

Consider `CCC[C@H](NC(=O)[C@@H](N)CCC)C(=O)NC1CCN(c2nc3c(cc2F)c(=O)c(C(=O)O)cn3-c2ccc(F)cc2F)C1.Cl` (stereo partly drawn) [Example 3b, 7-(3-L-Norvaline-L-Norvalineamino-1-pyrrolidinyl)-1-(2,4-difluorophenyl)-6-fluoro-1,4-dihydro-4-oxo-1,8-naphthyridine-3-carboxylic acid hydrochloride], for which the “Oral (ED50)” value in data set [1] came out at 9.1 mg/kg/day; in [6], 1.8 mg/kg/day; in data set [10], 4.0 mg/kg/day. Also, the MIC in data set [2] came out at 50 µg/mL; in [3] it was 25 µg/mL; in data set [5], 12.5 µg/mL; in [9], 12.5 µg/mL. The “Half Life Dog” value in data set [4] stood at 86.5 s. The “C max (range)” value in data set [7] (maximum plasma concentration) is 1.9 (1.5-2.2) mcg/ml. For the same compound, the “AUC (0-32 h)” value in [7] (plasma, 0-32 h) came to 10.2 µg·h/mg. The “Water Solubility” value in data set [8] was more than 40 mg/mL.

(Values after patent US5057523A, “Dipeptide quinolone derivatives” (Abbott Laboratories, priority 1989, dated 1991).)
